Starred links: 1 amine or outer side, 2 acyl side, 3 side chain; linkers in the order of their positions; H or OH if unused. Non-standard residues stand in square brackets, D forms with d. Residues, ends and D or L forms follow the SMILES beside them. Groups on a side chain read outwards from the residue. *: point of attachment. C20 diacid = O=C(O)CCCCCCCCCCCCCCCCCCC(=O)*; γGlu = O=C(O)[C@H](CCC(=O)[*:2])N[*:1]; Nle = CCCC[C@H](N)C(=O)O; AEEA = NCCOCCOCC(=O)O
How the values were obtained:
hCRHR2 = target: T1, hCRHR2 (Homo sapiens, UniProt Q13324); assay: HTRF cAMP assay, determination of hCRHR2 potency (peptide libraries 5 conc., purified peptides 11 conc.); type: cell-based; conditions: Table 3, matched molecular pairs X^38 L vs Nle, peptide library of Example 4; read-out: hCRHR2 pEC50 (converted)
T1 sequence (Q13324 1-411): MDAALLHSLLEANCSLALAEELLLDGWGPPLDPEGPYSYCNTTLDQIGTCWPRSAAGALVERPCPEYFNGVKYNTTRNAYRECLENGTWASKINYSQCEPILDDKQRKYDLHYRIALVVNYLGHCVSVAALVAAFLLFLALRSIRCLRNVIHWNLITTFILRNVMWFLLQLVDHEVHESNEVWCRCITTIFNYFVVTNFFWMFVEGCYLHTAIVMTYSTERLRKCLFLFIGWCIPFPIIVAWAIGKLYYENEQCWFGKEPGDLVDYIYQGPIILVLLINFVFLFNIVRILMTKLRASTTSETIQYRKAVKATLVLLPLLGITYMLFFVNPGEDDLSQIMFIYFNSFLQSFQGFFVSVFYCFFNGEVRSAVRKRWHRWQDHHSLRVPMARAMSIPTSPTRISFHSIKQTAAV
Outline: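 Agonist peptides are added to suspended, freshly thawed CHO-K1 cells that stably carry the human receptor. Intracellular cAMP competes with d2-cAMP for a cryptate-tagged antibody, lowering the FRET signal. A variable-slope sigmoid curve is fitted to obtain EC50.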

hCRHR1 = target: T2, hCRHR1 (Homo sapiens, UniProt P34998); assay: HTRF cAMP assay, determination of hCRHR1 potency (peptide libraries 5 conc., purified peptides 11 conc.); type: cell-based; conditions: Table 3, matched molecular pairs X^38 L vs Nle, peptide library of Example 4; read-out: hCRHR1 pEC50 (converted)
T2 sequence (P34998 24-415): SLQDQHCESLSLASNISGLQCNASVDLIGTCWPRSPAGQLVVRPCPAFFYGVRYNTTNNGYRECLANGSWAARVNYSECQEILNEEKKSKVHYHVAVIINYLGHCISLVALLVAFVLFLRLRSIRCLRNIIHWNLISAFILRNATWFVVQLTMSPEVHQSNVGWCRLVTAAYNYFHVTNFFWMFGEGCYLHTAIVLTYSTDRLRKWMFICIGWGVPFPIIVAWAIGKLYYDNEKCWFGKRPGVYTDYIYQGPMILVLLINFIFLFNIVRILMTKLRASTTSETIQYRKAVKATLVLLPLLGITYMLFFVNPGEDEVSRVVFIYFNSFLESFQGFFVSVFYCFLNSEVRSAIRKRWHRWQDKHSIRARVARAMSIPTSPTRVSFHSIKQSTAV
Outline: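 CHO-K1 cells stably expressing human CRHR1, thawed from frozen stocks just before use, were stimulated in suspension with agonist peptides. cAMP was measured by HTRF competitive immunoassay (cryptate anti-cAMP antibody vs d2-cAMP).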

SMILES	EC50 (hCRHR2) [nM]	EC50 (hCRHR1) [nM]
CC[C@H](C)[C@H](N)C(=O)N[C@H](C(=O)N[C@@H](CC(C)C)C(=O)N[C@@H](CO)C(=O)N[C@@H](CC(C)C)C(=O)N[C@@H](CC(=O)O)C(=O)N[C@H](C(=O)N1CCC[C@H]1C(=O)N[C@H](C(=O)NCC(=O)N[C@@H](CC(C)C)C(=O)N[C@@H](CC(C)C)C(=O)N[C@@H](CCC(N)=O)C(=O)N[C@H](C(=O)N[C@@H](CC(C)C)C(=O)N[C@@H](CC(C)C)C(=O)N[C@@H](CCC(=O)O)C(=O)N[C@@H](CCC(N)=O)C(=O)N[C@@H](C)C(=O)N[C@@H](CCCNC(=N)N)C(=O)N[C@@H](C)C(=O)N[C@@H](CCC(=O)O)C(=O)N[C@@H](CO)C(=O)N[C@@H](C)C(=O)N[C@@H](CCCNC(=N)N)C(=O)N[C@@H](CCC(=O)O)C(=O)N[C@@H](CCC(N)=O)C(=O)N[C@@H](C)C(=O)N[C@@H](CCCCNC(=O)COCCOCCNC(=O)COCCOCCNC(=O)CC[C@H](NC(=O)CC[C@H](NC(=O)CCCCCCCCCCCCCCCCCCC(=O)O)C(=O)O)C(=O)O)C(=O)N[C@H](C(=O)N[C@@H](CC(N)=O)C(=O)N[C@@H](C)C(=O)N[C@@H](CCC(=O)O)C(=O)N[C@H](C(=O)N[C@@H](CC(C)C)C(=O)N[C@@H](C)C(=O)N[C@@H](CCC(=O)O)C(=O)N[C@H](C(N)=O)C(C)C)[C@@H](C)CC)[C@@H](C)O)[C@@H](C)CC)[C@@H](C)CC)C(C)C)C(C)C [SEQ ID NO: 41] (H-IVLSLDVPIGLLQILLEQARAESAREQAK([AEEA-AEEA-γGlu-γGlu-C20 diacid])TNAEILAEV-NH2)	0.631	15800
CCCC[C@H](NC(=O)[C@@H](NC(=O)[C@H](CCC(=O)O)NC(=O)[C@H](C)NC(=O)[C@H](CC(N)=O)NC(=O)[C@@H](NC(=O)[C@H](CCCCNC(=O)COCCOCCNC(=O)COCCOCCNC(=O)CC[C@H](NC(=O)CC[C@H](NC(=O)CCCCCCCCCCCCCCCCCCC(=O)O)C(=O)O)C(=O)O)NC(=O)[C@H](C)NC(=O)[C@H](CCC(N)=O)NC(=O)[C@H](CCC(=O)O)NC(=O)[C@H](CCCNC(=N)N)NC(=O)[C@H](C)NC(=O)[C@H](CO)NC(=O)[C@H](CCC(=O)O)NC(=O)[C@H](C)NC(=O)[C@H](CCCNC(=N)N)NC(=O)[C@H](C)NC(=O)[C@H](CCC(N)=O)NC(=O)[C@H](CCC(=O)O)NC(=O)[C@H](CC(C)C)NC(=O)[C@H](CC(C)C)NC(=O)[C@@H](NC(=O)[C@H](CCC(N)=O)NC(=O)[C@H](CC(C)C)NC(=O)[C@H](CC(C)C)NC(=O)CNC(=O)[C@@H](NC(=O)[C@@H]1CCCN1C(=O)[C@@H](NC(=O)[C@H](CC(=O)O)NC(=O)[C@H](CC(C)C)NC(=O)[C@H](CO)NC(=O)[C@H](CC(C)C)NC(=O)[C@@H](NC(=O)[C@@H](N)[C@@H](C)CC)C(C)C)C(C)C)[C@@H](C)CC)[C@@H](C)CC)[C@@H](C)O)[C@@H](C)CC)C(=O)N[C@@H](C)C(=O)N[C@@H](CCC(=O)O)C(=O)N[C@H](C(N)=O)C(C)C [SEQ ID NO: 42] (H-IVLSLDVPIGLLQILLEQARAESAREQAK([AEEA-AEEA-γGlu-γGlu-C20 diacid])TNAEI[Nle]AEV-NH2)	0.2	251

— EP4810052A2, “HCRHR2 SELECTIVE POLYPEPTIDES” (Gubra A/S, priority 2023, dated 2026)
